Laboratory results as given in patent EP2140864A2 (H. Lundbeck A/S, priority 2001, dated 2002).
Marks after values point to notes of the source that are not given here.

Experiments:
Type in all cases: in vivo
Male Sprague-Dawley rats = test: Rat Forced Swim Test (FST); settings: for antidepressant profile in the FST (conclusion): overall conclusion of the study
Protocol: The procedure used in this study was similar to that previously described (Porsolt, et al., 1978), except the water depth (30 cm in this procedure). The greater depth in this test prevented the rats from supporting themselves by touching the bottom of the cylinder with their feet. Swim sessions were conducted by placing rats in individual plexiglass cylinders (46 cm tall x 20 cm in diameter) containing 23-25°C water 30 cm deep (Porsolt, et al. used a depth of only 15 cm; also, see Detke, et al., 1995). Two swim tests were conducted always between 1200 and 1800 hours: an initial 15-min pretest followed 24 h later by a 5-minute test. […] All other test sessions were conducted between 1300 to 1700 hours. Following all swim sessions, rats were removed from the cylinders, dried with paper towels and placed in a heated cage for 15 minutes and returned to their home cages. All test sessions were videotaped using a Panasonic color video camera and recorder for scoring later.
Male Sprague-Dawley rats (Taconic Farms, NY) were used in all experiments. Rats were housed in pairs and maintained on a 12:12-h light-dark cycle. Rats were handled for 5 minutes each day for 5 days prior to behavioral testing.
The rat's behavior was rated at 5 second intervals during the 5 minute test as one of the following: • 1. Immobility- rat remained floating in the water without struggling and was only making those movements necessary to keep its head above water; • 2. Climbing - rat was making active movements with its forepaws in and out of the water, usually directed against the walls; • 3. Swimming - rat was making active swimming motions, more than necessary to merely maintain its head above water, e.g. moving around in the cylinder; and • 4. Diving - entire body of the rat was submerged.
All of the behavior scoring was done by a single rater, who was blind to the treatment condition. The rater was also present in the room throughout the entire test period.
All injections were given using 1 cc tuberculin syringe with 26 3/8 gauge needles (Becton-Dickinson, VWR Scientific, Bridgeport, NJ). The volume of injection was 1 ml/kg.
The drugs were dissolved in 100% N,N-dimethylacetamide. All administrations were given using 1 cc tuberculin syringes, to which a 3 inch, curved, stainless steel gavage needle was attached. The volume of administration was 1 ml/kg.
The compounds were dissolved in 100% N,N-dimethylacetamide. All administrations were given using 1 cc tuberculin syringes, to which a 3 inch, curved, stainless steel gavage needle was attached. The volume of administration was 1 ml/kg.
The forced swim test data (immobility, swimming, climbing, diving) were subjected to a randomized, one-way ANOVA and post hoc tests conducted using the Student-Newman-heuls test. The data were analyzed using the GBSTAT program, version 6.5 (Dynamics Microsystems, Inc., Silver Spring, MD, 1997). All data are presented as means ± S.E.M.

[1] = test system: Male albino Sprague-Dawley rats; test: Rat Social Interaction Test (SIT); settings: for Social Interaction: unfamiliar cage mates in a familiar arena
[2] = test system: Male albino Sprague-Dawley rats; test: Rat Social Interaction Test (SIT)
Protocol: Rats were allowed to acclimate to the animal care facility for 5 days and were housed singly for 5 days prior to testing. Animals were handled for 5 minutes per day. The design and procedure for the Social Interaction Test was carried out as previously described by Kennett, et al. (1997). On the test day, weight matched pairs of rats (± 5%), unfamiliar to each other, were given identical treatments and returned to their home cages. Animals were randomly divided into 5 treatment groups, with 5 pairs per group, and were given one of the following i.p. treatments: Example 92 (10, 30 or 100 mg/kg), vehicle (1 ml/kg) or chlordiazepoxide (5 mg/kg). Dosing was 1 hour prior to testing. Rats were subsequently placed in a white perspex test box or arena (54 x 37 x 26 cm), whose floor was divided up into 24 equal squares, for 15 minutes. An air conditioner was used to generate background noise and to keep the room at approximately 74°F. All sessions were videotaped using a JVC camcorder (model GR-SZ1, Elmwood Park, NJ) with either TDK (HG ultimate brand) or Sony 30 minute videocassettes. All sessions were conducted between 1:00 - 4:30 P.M. Active social interaction, defined as grooming, sniffing, biting, boxing, wrestling, following and crawling over or under, was scored using a stopwatch (Sportsline model no. 226, 1/100 sec. discriminability). The number of episodes of rearing (animal completely raises up its body on its hind limbs), grooming (licking, biting, scratching of body), and face washing (i.e. hands are moved repeatedly over face), and number of squares crossed were scored. Passive social interaction (animals are lying beside or on top of each other) was not scored. All behaviors were assessed later by an observer who was blind as to the treatment of each pair. At the end of each test, the box was thoroughly wiped with moistened paper towels.
Male albino Sprague-Dawley rats (Taconic Farms, NY) were housed in pairs under a 12 hr light dark cycle (lights on at 0700 hrs.) with free access to food and water.
Example 92 was dissolved in 100% DMSO (Sigma Chemical Co., St. Louis, MO). Chlordiazepoxide (purchased from Sigma Chemical Co., St. Louis, MO) was dissolved in double distilled water. The vehicle consisted of 50% DMSO (v/v). All drug solutions were made up 10 minutes prior to injection and the solutions were discarded.
Example 34 was dissolved in 5% lactic acid, v/v. The vehicle consisted of 100% dimethylacetamide (DMA) and this was used to make up all drug solutions. All drug solutions were made up fresh each day and any unused solutions were discarded at the end of the test day. The volume of drug solution administered was 1 ml/kg.
The social interaction data (time interacting, rearing and squares crossed) were subjected to a randomized, one-way ANOVA and post hoc tests conducted using the Student-Newman-Keuls test. The data were subjected to a test of normality (Shapiro-Wilk test). The data were analyzed using the GBSTAT program, version 6.5 (Dynamics Microsystems, Inc., Silver Spring, MD, 1997). All data are presented as means ± S.E.M.

[3] = 3 mg/kg p.o., single administration, 1 hr. before test
[4] = 10 mg/kg p.o., single administration, 1 hr. before test
[5] = 30 mg/kg p.o., single administration, 1 hr. before test
[6] = 0.3 mg/kg p.o., single administration, 1 hr. before test
[7] = 1 mg/kg p.o., single administration, 1 hr. before test
[8] = 0.03 mg/kg p.o., one hour before test
[9] = 0.1 mg/kg p.o., one hour before test
[10] = 0.3 mg/kg p.o., one hour before test
[11] = 1 mg/kg p.o., one hour before test
[12] = 30 mg/kg i.p., single injection, 5 minute test
[13] = 10 mg/kg i.p., 1 hour prior to testing
[14] = 30 mg/kg i.p., 1 hour prior to testing
[15] = 100 mg/kg i.p., 1 hour prior to testing

## Cc1ccc(Nc2cc(N3CCCCC3)nc(N(C)CCc3ccccc3)n2)cc1 [Example 22]
Male Sprague-Dawley rats; [3]
  Climbing: 2.0 ± 0.6
  Diving: 0.4 ± 0.4
  Immobility: 50 ± 0.9
  Swimming: 7.6 ± 0.5
Male Sprague-Dawley rats; [4]
  Climbing: 2.9 ± 0.5
  Diving: 0.4 ± 0.3
  Immobility: 41 ± 1.3^c
  Swimming: 15.3 ± 0.8^g
Male Sprague-Dawley rats; [5]
  Climbing: 5.2 ± 1.0^a
  Diving: 0.0 ± 0.0
  Immobility: 31 ± 2.8^b
  Swimming: 23.2 ± 2.0^f
Male Sprague-Dawley rats
  antidepressant profile in the FST (conclusion): has antidepressant properties

## Cc1ccc(Nc2cc(N3CCCCC3)nc(N3CCN(c4ncccc4C(F)(F)F)CC3)n2)cc1 [Example 34]
Male Sprague-Dawley rats; [6]
  Climbing: 3.3 ± 0.7
  Diving: 0.2 ± 0.1
  Immobility: 45 ± 1.5^a
  Swimming: 11.6 ± 0.9^d
Male Sprague-Dawley rats; [7]
  Climbing: 5.0 ± 0.8^c
  Diving: 0.3 ± 0.2
  Immobility: 35 ± 1.9^b
  Swimming: 19.6 ± 1.3^d,e
Male Sprague-Dawley rats; [3]
  Climbing: 4.3 ± 0.8
  Diving: 0.3 ± 0.3
  Immobility: 35 ± 2.0^b
  Swimming: 20.8 ± 1.3^d,e
Male Sprague-Dawley rats; [4]
  Climbing: 2.0 ± 0.4
  Diving: 0.4 ± 0.3
  Immobility: 49 ± 1.4
  Swimming: 8.2 ± 1.2
Male Sprague-Dawley rats
  antidepressant profile in the FST (conclusion): resembles that of antidepressants
[1]; [8]
  Grooming bouts: 4.0 ± 0.4^&
  Rearing: 27 ± 3
  Squares Crossed: 312 ± 23
  Social Interaction: 62 ± 11 s
[1]; [9]
  Grooming bouts: 7.6 ± 0.5^+
  Rearing: 40 ± 5
  Squares Crossed: 295 ± 40
  Social Interaction: 66 ± 7 s
[1]; [10]
  Grooming bouts: 7.2 ± 1.1
  Rearing: 27 ± 2^S
  Squares Crossed: 363 ± 17
  Social Interaction: 53 ± 6 s
[1]; [11]
  Grooming bouts: 7.3 ± 0.8
  Rearing: 40 ± 1
  Squares Crossed: 343 ± 15^@
  Social Interaction: 69 ± 6 s
[1]; 0.03, 0.1, 0.3 or 1 mg/kg p.o., single administration
  increase in the duration of social interaction compared to vehicle: 2-2.6 fold
[2]; overall conclusion of the study
  anxiolytic profile in the Social Interaction Test (conclusion): produces an anxioltyic action

## COC[C@@H]1[C@@H](c2ccccc2)OCCN1c1nc(Nc2ccc(C)cc2)cc(N2CCCCC2)n1 [Example 49]
Male Sprague-Dawley rats; [3]
  Climbing: 3.0 ± 0.7
  Diving: 1.0 ± 0.7
  Immobility: 43 ± 1.9
  Swimming: 13.1 ± 1.4
Male Sprague-Dawley rats; [4]
  Climbing: 2.4 ± 0.7
  Diving: 0.0 ± 0.0
  Immobility: 48 ± 1.7
  Swimming: 10.0 ± 1.0
Male Sprague-Dawley rats; [5]
  Climbing: 2.3 ± 0.4
  Diving: 0.4 ± 0.4
  Immobility: 41 ± 2.0^a
  Swimming: 16.7 ± 1.3^d

## O=C1C(=Nc2cccc(C(F)(F)F)c2)c2ccccc2N1c1ccccc1 [Example 92, 1-PHENYL-3- [[3-(TRIFLUOROMETHYL)PHENYL]IMINO]-1,3-DIHYDRO-2H-INDOL-2-ONE]
Male Sprague-Dawley rats; 1 mg/kg i.p., single injection, 5 minute test
  Climbing: 11.7 ± 1.1 counts
Male Sprague-Dawley rats; 3 mg/kg i.p., single injection, 5 minute test
  Climbing: 14.6 ± 1.5 counts
Male Sprague-Dawley rats; [12]
  Climbing: 8.6 ± 1.7 counts
  Immobility: 25 ± 3.5 counts
[1]; [13]
  Grooming bouts: 6.1 ± 0.5
  Rearings: 47 ± 8^a
[1]; [14]
  Grooming bouts: 6.2 ± 0.7
  Rearings: 45 ± 5^b
  Squares Crossed: 368 ± 36
[1]; [15]
  Squares Crossed: 195 ± 19^c
[2]; [13]
  Squares Crossed: 298 ± 40
[2]; [15]
  Grooming bouts: 6.8 ± 1.3
  Rearings: 31 ± 4

## O=C1C(=Nc2ccc(C(F)(F)F)cc2)c2ccccc2N1c1ccccc1 [Example 95, 1-PHENYL-3-[[4-(TRIFLUOROMETHYL)PHENYL]IMINO]-1,3-DIHYDRO-2H-INDOL-2-ONE]
Male Sprague-Dawley rats; [3]
  Climbing: 2.6 ± 0.8
  Diving: 0.0 ± 0.0
  Immobility: 40 ± 3.3
  Swimming: 17.1 ± 2.5
Male Sprague-Dawley rats; [4]
  Climbing: 1.3 ± 0.5
  Diving: 0.1 ± 0.1
  Immobility: 52 ± 1.2^a
  Swimming: 6.9 ± 0.9^b
Male Sprague-Dawley rats; [5]
  Climbing: 1.0 ± 0.3
  Diving: 0.0 ± 0.0
  Immobility: 54 ± 0.9^a
  Swimming: 4.8 ± 0.7^b
Male Sprague-Dawley rats
  antidepressant profile in the FST (conclusion): does not produce antidepressant-like actions

## O=C1C(=Nc2ccc(Br)cc2)c2ccccc2N1c1ccccc1 [Example 98, 3-[(4-BROMOPHENYL)IMINO]-1-PHENYL-1,3-DIHYDRO-2H-INDOL-2-ONE]
Male Sprague-Dawley rats; [3]
  Climbing: 4.3 ± 0.9^b
  Diving: 0.1 ± 0.1
  Immobility: 35 ± 2.6^a
  Swimming: 20.4 ± 1.9^c
Male Sprague-Dawley rats; [4]
  Climbing: 2.4 ± 0.3
  Diving: 0.8 ± 0.4
  Immobility: 39 ± 1.1^a
  Swimming: 17.6 ± 1.0^c
Male Sprague-Dawley rats; [5]
  Climbing: 2.0 ± 0.3
  Diving: 0.2 ± 0.2
  Immobility: 38 ± 2.3^a
  Swimming: 20.3 ± 2.1^c
Male Sprague-Dawley rats
  antidepressant profile in the FST (conclusion): resembling that of the clinically established antidepressant fluoxetine

## O=C1C(=Nc2cc(Cl)cc(Cl)c2)c2ccccc2N1c1ccccc1 [Example 103, 3-[(3,5-DICHLOROPHENYL)IMINO]-1-PHENYL-1,3-DIHYDRO-2H-INDOL-2-ONE]
Male Sprague-Dawley rats; [3]
  Climbing: 2.8 ± 0.6
  Diving: 0.5 ± 0.4
  Immobility: 44 ± 2.7
Male Sprague-Dawley rats; [4]
  Climbing: 3.5 ± 0.6
  Diving: 0.4 ± 0.2
  Immobility: 42 ± 2.2
  Swimming: 14.3 ± 1.6
Male Sprague-Dawley rats; [5]
  Climbing: 4.8 ± 0.7
  Diving: 1.1 ± 0.5
  Immobility: 32 ± 1.8^a
  Swimming: 22.7 ± 1.1^c
Male Sprague-Dawley rats
  antidepressant profile in the FST (conclusion): has antidepressant properties
